The results in this text go back to patent publication US10206894B2, “Compounds for use in treatment of mucositis” (priority 2011, dated 2019).

In the data set the test system is fractionated radiation and cisplatin induced oral mucositis, left buccal cheek pouch. The class given is in vivo. The note with it: for peak mean mucositis score: peak on Day 19. Here is the method: Seventy (70) male Syrian Golden Hamsters were used in this example. Mucositis was induced using a combination of fractionated radiation and cisplatin. Cisplatin was administered on Days 0 and 6 at a dose of 5 mg/kg by i.p. injection. Each hamster was administered a total radiation dose of 60 Gy directed to their left buccal cheek pouch split into eight equal fractions of 7.5 Gy provided on Days 0, 1, 2, 3, 6, 7, 8 and 9. Radiation was generated with a 160 kilovolt potential (15-ma) source at a focal distance of 50 cm, hardened with a 0.35 mm Cu filtration system. Irradiation targeted the left buccal pouch mucosa at a rate of 2.0 Gy/minute. Prior to irradiation, animals were anesthetized with an i.p. injection of ketamine (160 mg/mL) and xylazine (8 mg/mL). The left buccal pouch was everted, fixed and isolated using a lead shield. Test materials were administered topically to the left cheek pouch three times daily, as detailed in Table 3 at a dose of 3 mg/mL in a volume of 0.5 mL per dose, either on the days of radiation (Days 0-3, 6-9), the days on which radiation was not administered (−1, 4, 5 and 10), Days 0-12 or Days 0-35. Mucositis in the left cheek pouch was evaluated clinically starting on Day 7, and continuing on alternate days until Day 35. On Day 35, all animals were euthanized by CO2 inhalation and death was confirmed by monitoring heartbeat in accordance with USDA guidelines.
The mucositis score, weight change and survival were measured throughout the study. For the evaluation of mucositis, the animals were anesthetized with an inhalation anesthetic, and the left pouch everted. Mucositis was scored visually by comparison to a validated photographic scale, ranging from 0 for normal, to 5 for severe ulceration (as described above in Example 2). A score of 1-2 is considered to represent a mild stage of the disease, whereas a score of 3-5 is considered to indicate moderate to severe mucositis. Following visual scoring, a digital image was taken of each animal's mucosa using a standardized technique. At the conclusion of the experiment, images were randomly numbered and scored by two independent trained observers graded the photographs in blinded fashion using the above-described scale (blinded scoring).
The grade of mucositis was scored, beginning on day 7, and for every second day thereafter, through and including day 35, The effect on mucositis of each drug treatment compared to placebo was assessed according to the following parameters: the difference in the number of days hamsters in each group had ulcerative (score ≥3) mucositis and the rank sum differences in daily mucositis scores.
On each evaluation day, the number of animals with a blinded mucositis score of ≥3 in each drug treatment group was compared to the control group. Differences were compared on a cumulative basis and statistical significance was determined by chi-square analysis. Efficacy, in this analysis, is defined by a significant reduction in the number of days that a group of animals had ulcerations (scores ≥3) when compared to the control group.
For each evaluation day the scores of the control group were compared to those of the treated groups using non-parametric rank sum analysis. Treatment success was considered as a statistically significant lowering of scores in the treated group on 2 or more days from day 6 to day 28.
All animals were weighed daily and their survival recorded to assess possible differences in animal weight among treatment groups as an indication for mucositis severity and/or possible toxicity resulting from the treatments. No deaths were observed during this study.
An analysis of the severity of mucositis was performed using the Mann-Whitney rank sum analysis to compare the scores for each treatment group to the controls on each day of the analysis. In this analysis, 2 days of significant reduction in the mucositis score are generally required before it is regarded as meaningful.

SMILES strings stand for the structures. Where two headings read alike, the source gives them in different places.

As to `N=C(N)NCCCCC(=O)Nc1cc(C(F)(F)F)cc(NC(=O)c2cc(C(=O)Nc3cc(C(F)(F)F)cc(NC(=O)CCCCNC(=N)N)c3OC3CCNC3)ncn2)c1OC1CCNC1` (centres unmarked) [Compound X], the “mucositis scores vs saline control group (Mann-Whitney rank sum)” value (3 mg/mL tid Day 0 until Day 35, Days 11 (p=0.002), 13 (p=0.023), 15-35 (p<0.001)) is “statistically significant reductions”. Also, where the note is “3 mg/mL tid Day 0 until Day 35, Days 17-35 (p<0.001 for all days)”, the “mucositis scores vs Kleptose control group (Mann-Whitney rank sum)” value is listed as “statistically significant reductions”. The “peak mean mucositis score” value reads like this: (3 mg/rid (in Kleptose vehicle), dosed Days 0-3 and 6-9) 3.1; (dosed Days −1, 4, 5, and 10) 3.1. Where the note is “Fractionated Radiation”, the “% reduction of animal days with OM scores ≥ 3” value was 92.6%. Further, the “percentage of hamsters in which an ulcer formed during the study” value (dosed Day 0 to Day 35, 100% in saline and vehicle controls) is 10%. In addition, the ulceration rate amounted to 100% (dosed Days 0-3 and 6-9, on Day 17, continued until Day 29); 100% (dosed Days 0-12, on Day 17, continued until Day 27); 10% (dosed Days 0-35, on Days 15-23 (single hamster)); 100% (dosed Days −1, 4, 5, and 10, on Day 19 only). In addition, the “percentage of animal days with a score of 3 or higher” value is, setting by setting: (dosed Days 0-3 and 6-9, saline control 54.7%) 58.0%; (dosed Days 0-12, saline control 54.7%) 58.0%; (dosed Days −1, 4, 5, and 10, saline control 54.7%) 48.0%. Further, the “maximum mean mucositis score” value by setting is: (dosed Days 0-12, maximum on Days 19, 21 and 23) 3.1; (dosed Days 0-35, maximum on Days 19 and 21) 2.1. Besides, the “percentage of animal days with a score of 3 or higher (incidence of ulcerative oral mucositis)” value (dosed Days 0-35, saline control 54.7%, Kleptose vehicle 56.0%, p<0.001) amounted to 3.3%. Under “dosed Days −1, 4, 5 and 10, Days 21 (p=0.018), 23, 25 (p=0.040), 33, 35 (p=0.036)”, the “mucositis scores vs control (Mann-Whitney rank sum)” value is reported as “statistically significant reductions”. Moreover, the “daily mean mucositis scores and number of days animals exhibited ulceration” value (fractionated radiation model, oral rinse 3 times daily, 35 day treatment regimen) is reported as “significantly reduced”. For the same molecule, the “adverse findings in weight gain, general behavior in the home cage, or clinical signs” value (hamster, in vivo) is “no adverse findings”. Also, where the note is “hamster, in vivo”, the “adverse reaction to treatment” value was “no evidence of any adverse reaction”.
